Consider 20 molecules from patent publication US12227520B2 (priority 2019, dated 2025).

The subject of data set [1] is HIV-1 (IIIB). Nature of the data set: Antiviral assay in MT-4 cells (HIV MT-4 antiviral assay). Type of data set: cell-based. The following applies: Human immunodeficiency virus 1, IIIB, MT4, 120 h, HIV-1 (IIIB) in MT-4 cells, 5 days incubation. The essentials: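 MT-4 cells infected with HIV-1 IIIB (1:250 diluted stock) and exposed to 1:3 serially diluted compound in RPMI with 10% FBS. Viability read by CellTiter-Glo luminescence after 5 days at 37° C; mock-infected cells and 5 μM AZT as controls.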

Data set [2] can be described thus: Cytotoxicity assay in MT-4 cells. The data set is classed as cell-based, human. Conditions: human, uninfected MT-4 cells, 5 days incubation; read-out: CC50. A digest of the protocol:
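Infected MT-4 cells (HIV-1 IIIB, fresh 1:250 dilution of concentrated stock) or mock-infected cells exposed to compounds for 5 days at 37 °C. Viability by CellTiter-Glo luminescence; 5 μM AZT positive control, no-drug negative control. Uninfected cells used for cytotoxicity, with 10 μM puromycin as base-level cytotoxicity control.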

Data set [3] relates to pLai RLuc reporter virus. Nature of the data set: microbe, parasite or virus in culture. Conditions: Human immunodeficiency virus 1, 72 h. Type of data set: cell-based, HIV. The essentials:
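MT-4 cells pre-infected 2 h at 37 °C with pLai RLuc virus, then exposed to 1:3 serial dilutions of compound in RPMI/10% FBS with or without 50% human serum for 72 h at 37 °C. Renilla luminescence read-out; serum shift = EC50(HS/CCM)/EC50(CCM).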

Setting [4] is: read-out: Antiviral Serum Shift RLuc 50% HS, HS/CCM (RPMI media, 10% FBS, 50% HS, 1% P/S), 72-h incubation.
Setting [5] is: read-out: Antiviral Serum Shift RLuc CCM, CCM (RPMI media, 10% FBS, 1% P/S), 72-h incubation.

A word on the CC50: it is the concentration giving 50% cytotoxicity.

Like-named read-outs stand apart in the source and are kept apart here. Where only a bound is given, the exact number is not on record here.

Turning to `O=C(NCc1c(F)cc(F)c(F)c1F)c1cn2c(c(O)c1=O)C(=O)N1CCCC[C@H]2C1` [Example 125, (7S)-12-hydroxy-1,11-dioxo-N-(2,3,4,6-tetrafluorobenzyl)-1,4,5,6,7,11-hexahydro-3H-2,7-methanopyrido[1,2-a][1,4]diazonine-10-carboxamide], the EC50 in data set [1] (read-out: EC50) turned out to be 2.95 nM; in data set [3] (setting [4]) it was 1.97 nM; in data set [3] (setting [5]), 0.328 nM. The CC50 at 5 days in data set [2] stood at 10200 nM.
As to `O=C(NCc1ccc(F)cc1F)c1cn2c(c(O)c1=O)C(=O)N1CCc3cc(Cl)ccc3[C@@H]2C1` [Example 140-2, (13R)-10-chloro-N-(2,4-difluorobenzyl)-4-hydroxy-3,5-dioxo-3,5,8,13-tetrahydro-7H-6,13-methanobenzo[g]pyrido[1,2-a][1,4]diazonine-2-carboxamide], the results for the EC50 in data set [1] (read-out: EC50), in data set [3] (setting [4]) and in data set [3] (setting [5]) were 1.92 nM, 22.4 nM and 0.347 nM, respectively. The CC50 at 5 days in data set [2] was 5230 nM.
Turning to `O=C(NCc1ccc(F)c(Cl)c1F)c1cn2c(c(O)c1=O)C(=O)N1CCC=C(F)[C@@H]2C1` (single isomer, unassigned) [Example 123-2], the EC50 in data set [1] (read-out: EC50) was found to be 1.93 nM; in data set [3] (setting [4]), 440 nM; in data set [3] (setting [5]), 0.245 nM. Moreover, the CC50 at 5 days in data set [2] came to 14600 nM.
In the same order, the values of `C[C@@]12Cc3cc(F)c(F)cc3CN(C1)C(=O)c1c(O)c(=O)c(C(=O)NCc3c(F)cc(F)cc3F)cn12` (single isomer, unassigned) [Example 191-1] are 2.61 nM, 2.69 nM, 0.611 nM and 11600 nM.
Regarding `C[C@H]1CCCN2CC1n1cc(C(=O)NCc3c(F)cc(F)cc3F)c(=O)c(O)c1C2=O` (stereo partly drawn) [Example 190, (6S)-12-hydroxy-6-methyl-1,11-dioxo-N-(2,4,6-trifluorobenzyl)-1,4,5,6,7,11-hexahydro-3H-2,7-methanopyrido[1,2-a][1,4]diazonine-10-carboxamide], the figures for the EC50 in data set [1], in data set [3] (setting [4]) and in data set [3] (setting [5]) were 1.81 nM, 14.2 nM and 0.434 nM, respectively. Besides, in data set [2], the CC50 at 5 days came to 22800 nM.
With `O=C(NCc1ccc(F)cc1F)c1cn2c(c(O)c1=O)C(=O)N1CCCC(F)(F)[C@H]2C1` [Example 16-2, (7R)—N-(2,4-difluorobenzyl)-6,6-difluoro-12-hydroxy-1,11-dioxo-1,4,5,6,7,11-hexahydro-3H-2,7-methanopyrido[1,2-a][1,4]diazonine-10-carboxamide], the results for the EC50 in data set [1] (read-out: EC50), in data set [3] (setting [4]) and in data set [3] (setting [5]) were 5.3 nM, 82.5 nM and 0.85 nM, respectively. The CC50 at 5 days in data set [2] is 36200 nM.
In the same order, the values of `C[C@@H]1[C@H]2CCCCN1C(=O)c1c(O)c(=O)c(C(=O)NCc3ccc(F)cc3F)cn12` [Example 7, (7R,13R)—N-(2,4-difluorobenzyl)-12-hydroxy-13-methyl-1,11-dioxo-1,4,5,6,7,11-hexahydro-3H-2,7-methanopyrido[1,2-a][1,4]diazonine-10-carboxamide] are 1.4 nM, 1.47 nM, 0.28 nM and 8810 nM.
In the same order, the values of `C[C@@H]1CC[C@H](C)N2C[C@H]1n1cc(C(=O)NCc3ccc(F)cc3F)c(=O)c(O)c1C2=O` [Example 175, (3S,6R,7S)—N-(2,4-difluorobenzyl)-12-hydroxy-3,6-dimethyl-1,11-dioxo-1,4,5,6,7,11-hexahydro-3H-2,7-methanopyrido[1,2-a][1,4]diazonine-10-carboxamide] are 1.29 nM, 20.9 nM, 0.412 nM and 7740 nM.
On the same counts, the results for `C[C@]12Cc3cc(F)c(F)cc3CN(C1)C(=O)c1c(O)c(=O)c(C(=O)NCc3c(F)cc(F)cc3F)cn12` (single isomer, unassigned) [Example 191-2] are 1.44 nM, 1.93 nM, 0.361 nM and 11800 nM.
For the molecule `O=C(NCc1ccc(F)c(Cl)c1F)c1cn2c(c(O)c1=O)C(=O)N1CCC=C[C@H]2C1` [Example 171, (7S)—N-(3-chloro-2,4-difluorobenzyl)-12-hydroxy-1,11-dioxo-1,4,7,11-tetrahydro-3H-2,7-methanopyrido[1,2-a][1,4]diazonine-10-carboxamide], the results for the EC50 in data set [1] (read-out: EC50), in data set [3] (setting [4]) and in data set [3] (setting [5]) were 0.962 nM, 8.5 nM and 0.387 nM, respectively. The half-maximal cytotoxic concentration (CC50) at 5 days in data set [2] came to 4190 nM.
With `CC(C)N1CCN2CC(C1)n1cc(C(=O)NCc3ccc(F)cc3F)c(=O)c(O)c1C2=O` (centres unmarked) [Example 34, N-(2,4-difluorobenzyl)-12-hydroxy-5-isopropyl-1,11-dioxo-1,4,5,6,7,11-hexahydro-3H-2,7-methanopyrido[1,2-a][1,4,7]triazonine-10-carboxamide], the figures for the EC50 in data set [1] (read-out: EC50), in data set [3] (setting [4]) and in data set [3] (setting [5]) were 3.3 nM, 9.56 nM and 2.06 nM, respectively. In addition, the half-maximal cytotoxic concentration (CC50) at 5 days in data set [2] stood at 16400 nM.
On to `O=C1c2c(O)c(=O)c(-c3nnc(Cc4ccc(F)cc4F)s3)cn2[C@H]2CCCCN1C2` [Example 185, (7S)-10-(5-(2,4-difluorobenzyl)-1,3,4-thiadiazol-2-yl)-12-hydroxy-4,5,6,7-tetrahydro-3H-2,7-methanopyrido[1,2-a][1,4]diazonine-1,11-dione], for which the EC50 in data set [1] (read-out: EC50) is 3.29 nM; in data set [3] (setting [4]), 4.88 nM; in data set [3] (setting [5]), 0.984 nM. In addition, in data set [2], the CC50 at 5 days came to 3550 nM.
On the same counts, the results for `C[C@H]1CC(F)(F)C[C@H]2CN1C(=O)c1c(O)c(=O)c(C(=O)NCc3c(F)cc(F)cc3F)cn12` [Example 113, (3S,7S)-5,5-difluoro-12-hydroxy-3-methyl-1,11-dioxo-N-(2,4,6-trifluorobenzyl)-1,4,5,6,7,11-hexahydro-3H-2,7-methanopyrido[1,2-a][1,4]diazonine-10-carboxamide] are 1.42 nM, 0.62 nM, 0.514 nM and 16900 nM.
On the same counts, the results for `CC[C@]1(O)CCCN2C[C@H]1n1cc(C(=O)NCc3c(F)cc(F)cc3F)c(=O)c(O)c1C2=O` [Example 93] are 2.24 nM, 1.55 nM, 0.462 nM and over 40400 nM.
In the same order, the values of `O=C(NCc1c(F)cc(F)cc1F)c1cn2c(c(O)c1=O)C(=O)N1CC[C@@H](F)CC[C@H]2C1` [Example 81-2, (5S,8S)-5-fluoro-13-hydroxy-1,12-dioxo-N-(2,4,6-trifluorobenzyl)-1,3,4,5,6,7,8,12-octahydro-2,8-methanopyrido[1,2-a][1,4]diazecine-11-carboxamide] are 1.35 nM, 0.737 nM, 0.304 nM and 11200 nM.
`C[C@H]1[C@@H]2CCCCN1C(=O)c1c(O)c(=O)c(C(=O)NCc3c(F)cc(F)cc3F)cn12` [Example 8, (7S, 13S)-12-hydroxy-13-methyl-1,11-dioxo-N-(2,4,6-trifluorobenzyl)-1,4,5,6,7,11-hexahydro-3H-2,7-methanopyrido[1,2-a][1,4]diazonine-10-carboxamide]: the EC50 in data set [1] amounted to 1.5 nM; in data set [3] (setting [4]), 1.41 nM; in data set [3] (setting [5]) it was 0.41 nM. Moreover, the CC50 at 5 days in data set [2] is 20800 nM.
For `CC1=CC[C@H]2CN(C(=O)c3c(O)c(=O)c(C(=O)NCc4c(F)cc(F)cc4F)cn32)[C@H]1C` [Example 144-2, (3S,7S)-12-hydroxy-3,4-dimethyl-1,11-dioxo-N-(2,4,6-trifluorobenzyl)-1,6,7,11-tetrahydro-3H-2,7-methanopyrido[1,2-a][1,4]diazonine-10-carboxamide], the EC50 in data set [1] (read-out: EC50) turned out to be 1.98 nM; in data set [3] (setting [4]), 4.46 nM; in data set [3] (setting [5]), 0.469 nM. Further, the 50% cytotoxic concentration (CC50) at 5 days in data set [2] was found to be 13900 nM.
On the same counts, the results for `C[C@@H]1CO[C@H](C)[C@H]2CN1C(=O)c1c(O)c(=O)c(C(=O)NCc3ccc(F)cc3F)cn12` [Example 197, (3R,6R,7R)—N-(2,4-difluorobenzyl)-12-hydroxy-3,6-dimethyl-1,11-dioxo-1,3,4,6,7,11-hexahydro-2,7-methanopyrido[1,2-d][1,4,7]oxadiazonine-10-carboxamide] are 1.49 nM, 8.35 nM, 0.589 nM and 22400 nM.
On the same counts, the results for `C[C@H]1C=CC[C@H]2CN1C(=O)c1c(O)c(=O)c(C(=O)NCc3ccc(F)cc3F)cn12` [Example 149, (3S,7S)—N-(2,4-difluorobenzyl)-12-hydroxy-3-methyl-1,11-dioxo-1,6,7,11-tetrahydro-3H-2,7-methanopyrido[1,2-a][1,4]diazonine-10-carboxamide] are 1.59 nM, 2.97 nM, 0.255 nM and 10000 nM.
In the same order, the values of `C[C@@]12CN(CCc3cc(F)c(F)cc31)C(=O)c1c(O)c(=O)c(C(=O)NCc3c(F)cc(F)cc3F)cn12` (single isomer, unassigned) [Example 120-1] are 3.54 nM, 4.96 nM, 0.371 nM and 8990 nM.
